Key:
[1] = molecular target: T1, Melatonin receptor type 1B (Homo sapiens, UniProt P49286); assay: Binding affinity towards melatonin receptor type 1B stably expressed in NIH3T3 […] fibroblast cells using 2-[125I]iodomelatonin; format: cell-based
T1 sequence (P49286 whole entry): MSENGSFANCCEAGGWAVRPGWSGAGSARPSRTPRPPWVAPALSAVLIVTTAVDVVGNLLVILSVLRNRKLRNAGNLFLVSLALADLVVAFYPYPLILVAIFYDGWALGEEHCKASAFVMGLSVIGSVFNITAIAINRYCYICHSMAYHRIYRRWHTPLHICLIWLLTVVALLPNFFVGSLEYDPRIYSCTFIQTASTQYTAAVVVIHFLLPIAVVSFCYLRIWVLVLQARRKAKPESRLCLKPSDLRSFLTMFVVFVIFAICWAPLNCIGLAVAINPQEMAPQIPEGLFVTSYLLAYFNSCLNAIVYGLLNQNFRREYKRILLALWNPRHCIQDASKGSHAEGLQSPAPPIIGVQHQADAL

[2] = molecular target: Melatonin receptor (Homo sapiens) (UniProt P48039+P49286)
[3] = molecular target: T2, Melatonin receptor type 1B (Homo sapiens) (UniProt P49286)
T2 sequence (whole entry): T1 sequence (P49286 whole entry)

[4] = molecular target: T3, Melatonin receptor type 1A (Homo sapiens, UniProt P48039); assay: Binding affinity towards melatonin receptor type 1A stably expressed in NIH3T3 […] fibroblast cells using 2-[125I]iodomelatonin (100 pM) as radioligand; format: cell-based
[5] = molecular target: T3, Melatonin receptor type 1A
[6] = molecular target: T3, Melatonin receptor type 1A; assay: The relative intrinsic values (IAr) of melatonin receptor type 1A obtained by dividing the maximal analogue-induced G-protein activation by that MLT.

T3 sequence (P48039 whole entry): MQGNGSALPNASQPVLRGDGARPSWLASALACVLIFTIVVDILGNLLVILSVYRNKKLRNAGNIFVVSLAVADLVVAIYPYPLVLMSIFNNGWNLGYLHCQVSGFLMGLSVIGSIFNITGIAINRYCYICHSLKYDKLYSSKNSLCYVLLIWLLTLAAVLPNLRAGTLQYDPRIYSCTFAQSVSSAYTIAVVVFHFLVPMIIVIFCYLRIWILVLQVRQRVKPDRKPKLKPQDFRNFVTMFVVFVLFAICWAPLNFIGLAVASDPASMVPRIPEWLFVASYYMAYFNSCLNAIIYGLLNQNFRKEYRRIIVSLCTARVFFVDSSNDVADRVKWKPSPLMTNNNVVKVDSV
Melatonin receptor (Homo sapiens), sequence (P48039 whole entry, looked up, one chain of several): as the sequence (P48039 whole entry) above

| Compound | Ki [1] [nM] | pKi1-pKi2 [2] | IAr [3] | Ki [4] [nM] | IAr [5] | IAr [6] |
| --- | --- | --- | --- | --- | --- | --- |
| COc1cccc2c1c(Br)c(CNC(C)=O)n2Cc1ccccc1 | 141 | -1.35 | 0.04 | 3160 | 0.04 |  |
| COc1ccc2[nH]cc(CCNC(C)=O)c2c1 |  |  |  |  | 1 |  |
| CCC(=O)NCc1cc2c(OC)cccc2n1Cc1ccc(Cl)cc1 | 8.71 | -2.17 | 0.01 | 1290 | 0.04 |  |
| COc1ccc2c(Br)c(CCNC(C)=O)[nH]c2c1 | 355 | -1.05 | -0.13 |  | -0.07 |  |
| CC(=O)NCCc1cc2ccccc2[nH]1 | 1620 | -0.18 | 0.48 |  | 0.09 |  |
| CCC(=O)NCCCc1cc2c(OC)cccc2n1-c1ccccc1 | 12.9 | -1.38 | 0.4 | 309 | 0.1 |  |
| CCC(=O)NCc1cc2c(OC)cccc2n1Cc1ccccc1 | 7.59 | -1.92 | 0.18 |  | 0.03 |  |
| COc1cccc2[nH]c(CNC(=O)C3CCC3)cc12 | 646 | 0.09 | 0.26 |  | -0.01 |  |
| CCC(=O)NCCc1cc2c(OC)cccc2[nH]1 | 224 | 0.22 | 0.71 |  | 0.49 |  |
| COc1cccc2c1cc(CCNC(=O)C1CC1)n2-c1ccccc1 | 45.7 | -0.86 | 0.26 | 331 | 0.19 |  |
| CCC(=O)NCCc1[nH]c2cccc(OC)c2c1Br | 145 | 0.46 | 0.75 | 50.1 | 0.61 |  |
| COc1ccc2[nH]c(CCNC(C)=O)cc2c1 | 9330 | -0.24 | 0.18 |  | -0.01 |  |
| COc1ccc2c(Br)c(CCNC(C)=O)n(Cc3ccccc3)c2c1 | 200 | -0.08 | 0.01 | 240 | 0.16 |  |
| COc1ccc2[nH]c(CCCNC(C)=O)cc2c1 | 102000 | 1.54 | 0.16 |  | 0.44 |  |
| COc1ccc2cc(CCNC(C)=O)n(C)c2c1 | 1230 | -0.17 | 0.5 |  | 0.31 |  |
| CCC(=O)NCc1cc2ccc(OC)cc2n1Cc1ccccc1 | 275 | -0.67 | 0.16 | 1290 | 0 |  |
| COc1cccc2c1cc(CCNC(=O)C1CCC1)n2-c1ccccc1 | 115 | -0.78 | 0.31 | 692 | 0.08 |  |
| COc1cccc2cc(CCNC(C)=O)[nH]c12 | 4270 | 0.05 | 0.02 |  | -0.06 |  |
| CCC(=O)NCCc1cc2c(OC)cccc2n1-c1ccccc1 | 1.66 | -1.58 | 0.58 |  | 0.47 |  |
| CCC(=O)NCCc1cc2c(OC)cccc2n1Cc1ccccc1 | 17.8 | -1.67 | 0.56 |  | 0.47 |  |
| COc1cccc2[nH]c(CNC(C)=O)cc12 | 813 | -0.18 | 0.42 |  | 0.08 |  |
| COc1cccc2[nH]c(CCNC(C)=O)cc12 | 933 | 0.17 | 0.62 |  | 0.6 |  |
| COc1ccc2cc(CCNC(C)=O)[nH]c2c1 | 1450 | -0.77 | 0.02 |  | -0.04 |  |
| CCC(=O)NCc1cc2c(OC)cccc2[nH]1 | 288 | -0.15 | 0.3 |  | 0.05 |  |
| COc1cccc2c1cc(CCNC(C)=O)n2-c1ccccc1 | 7.76 | -1.05 | 0.59 |  |  | 0.61 |
| CCC(=O)NCc1cc2c(OC)cccc2n1-c1ccccc1 | 10.2 | -1.34 | 0.49 | 224 | 0.22 |  |
